Values belong to the compound of their own block, whether it stands above or below them.
Experiments:
[1] = tested on: human glioma cell line U87 (wild type p53); test: MTS cell viability assay, U87 cells; type: cell-based; details: three-day treatment, read-out: IC50 of growth inhibition
[2] = target: T1, ^synMDMX (^24-108MDMX, p53-binding domain of MDMX) (Homo sapiens, UniProt O15151); test: competition SPR binding to synMDMX
T1 construct: MDMX (^24-108MDMX or syn MDMX); made in house; host or cells: chemical synthesis (inferred from the prefix 'syn'; no expression host named)
T1 sequence (O15151 24-108): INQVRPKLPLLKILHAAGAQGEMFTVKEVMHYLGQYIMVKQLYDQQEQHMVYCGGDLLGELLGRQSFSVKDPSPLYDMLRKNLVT

normal cells = details: cited from earlier work

IC50 [1]: 3.8 µM
Compound: COc1ccc(C2=N[C@@H](c3ccc(Cl)cc3)[C@@H](c3ccc(Cl)cc3)N2C(=O)N2CCNC(=O)C2)c(OC(C)C)c1 [Nutlin-3]

Kd [2]: 4.9 µM
Compound: CC(C)C[C@@H](NC(=O)[C@H]1CCCN1C(=O)[C@@H](Cc1c[nH]c2ccccc12)NC(=O)[C@@H](Cc1c[nH]c2ccccc12)NC(=O)[C@H](N)CC(=O)O)C(=O)N[C@H](C)C(=O)N[C@H](Cc1ccccc1)C(=O)N[C@H](CCC(=O)O)C(=O)N[C@H](C)C(=O)N[C@H](CC(C)C)C(=O)N[C@H](CC(C)C)C(=O)N[C@H](CCCNC(=N)N)C(=O)O [^DPMI-γ]

Compound: MI-219
activation of the p53 pathway (accumulation of p53, increased MDM2 and p21) (normal cells): transient activation of the p53 pathway | expression of PUMA and apoptosis (normal cells): fails to induce the expression of PUMA and apoptosis

From patent publication US20120328692A1, “POTENT D-PEPTIDE ANTAGONISTS OF MDM2 AND MDMX FOR ANTICANCER THERAPY” (UNIVERSITY OF MARYLAND, BALTIMORE, priority 2011, published 2012)
